Measurements as given in article PMC6151508, “Development of Novel Nrf2/ARE Inducers Bearing Pyrazino[2,1-a]isoquinolin Scaffold with Potent In Vitro Efficacy and Enhanced Physicochemical Properties” (Molecules : A Journal of Synthetic Chemistry and Natural …, 2017).
Converted amounts (≈) assume the structure as drawn.

Key:
Nrf2 [1] = system: Nrf2; design: method as in PMID 24053646; conditions: HCT116; cited from earlier work
[2] = system: antioxidant response element (ARE); design: method as in PMID 24053646; conditions: 10 μM, luciferase reporter assay; cited from earlier work
NQO1 [3] = system: NQO1; design: method as in PMID 24053646; conditions: HCT116; cited from earlier work
colorectal adenomas = system: colorectal adenomas; design: method as in PMID 24053646; conditions: AOM-DSS mouse model; cited from earlier work
heme oxygenase-1 (HO-1) = system: heme oxygenase-1 (HO-1); design: method as in PMID 24053646; conditions: HCT116; cited from earlier work
[4] = log D pH 7.4 by potentiometric titration (Gemini Profiler, pION); type: physicochemical
Description: (§1) Ketoprofen and propranolol were chosen as a control.
(§2) This is a new potentiometric acid−base titration method.

[5] = Parallel artificial membrane permeability assay (PAMPA by pION); conditions: pH 7.4
Protocol: (§6) Then we evaluated the physicochemical properties of a selected series of our compounds. […] All of them were evaluated with pKa, partition coefficient (log D, pH 7.4), membrane permeability (Pe, pH 7.4) and water solubility. […] Permeability (Pe) was determined by a standard parallel artificial membrane permeability assay (PAMPA by pION).
(§7) Permeability (Pe) was determined by a standard parallel artificial membrane permeability assay (PAMPA by pION).

[6] = Water solubility by pH-metric method (pSOL model 3); type: physicochemical; conditions: for solubility: water, pH 7.4, aqueous buffer, thermodynamic from solid
Description: as §2

[7] = pKa by potentiometric titration (Gemini Profiler, pION); type: physicochemical
Description: as §1, §2

[8] = MTT cell viability (cytotoxicity) assay; type: cell-based; conditions: human, HCT116 cells
Protocol: (§3) All the derivatives were evaluated for their ability to induce ARE in HepG2-ARE-C8 cell (HepG2 cells stably transfected with a luciferase reporter) by ARE luciferase reporter assay, and they were compared to the lead compound 2. At the same time, cytotoxicity studies were performed by the MTT assay against the HCT116 cells. The results of cytotoxic activity in vitro were expressed as the IC50 [18]. Because those compounds were designed for chemoprevention, they should not be cytotoxic.
Cell viabilities were determined by using 3-[4,5-dimethylthiazol-2-yl]-2,5-diphenyltetrazolium bromide (MTT) assay. MTT was dissolved in (phosphate buffered solution) PBS to a concentration of 5 mg/mL. HCT116 cells (8 × 10^3 cells/well) were plated in 96-well plates and incubated overnight. Different concentrations of test compounds were added to each cell for 24 h at 37 °C, and the 20 μL MTT solution was added and incubated for an additional 4 h. Then, 100 μL of DMSO was added to dissolve formazan precipitate after the solution was removed. The OD value was determined at 570 nm by Elx800 absorbance microplate reader (BioTek, Winooski, VT, USA). IC50 value (concentration at which cell survival equals 50% of control) = […].

[9] = system: antioxidant response element (ARE); experiment: ARE luciferase reporter assay in HepG2-ARE-C8 cells; type: cell-based; conditions: HepG2-ARE-C8, 12 h of treatment, mean ± SD n = 3; for fold induction at 0.1 µM / fold induction at 1 µM / fold induction at 5 µM / fold induction at 10 µM / fold induction at 50 µM / fold induction at 100 µM: read-out: ARE Inductivity in Luciferase Reporter Assay (induction fold)
Protocol: as §3
HepG2-ARE-C8 cells (4 × 10^4 cells/well) were incubated overnight in 96-well plates, and then treated with different concentrations of test compounds. tBHQ was used as a positive control, DMSO was used as a negative control, and the luciferase cell culture lysis reagent was used as a blank. The medium was removed after 12 h treatment. Then, the cells were harvested in the luciferase cell culture lysis reagent together with 100 μL of cold PBS. Then, centrifuging the solution and 20 μL of the supernatant was used for determining the luciferase activity. The luciferase activity was measured by a Luminoskan Ascent (Thermo Scientific, Waltham, MA, USA). The data were obtained in triplicate and expressed as fold induction over the control. Induction fold = (RLUtest − RLUblank)/(RLUDMSOcontrol − RLUblank). RLU = relative light unit l.

HCT116 cells = system: HCT116 cells; design: method as in PMID 24053646; conditions: previously reported value; cited from earlier work
Nrf2 [10] = experiment: Western blot of Nrf2 protein level in HCT116; type: cell-based, human; conditions: HCT116, 10 μM
Description: (§4) Compound 3g was selected to evaluate its capacity to activate the expression of Nrf2-regulated NQO1 by measuring the protein levels in HCT116 via Western Blot. […] Those data further confirmed that 3g bearing pyrido[1,2-a]pyrazin scaffold could elevate both Nrf2 and downstream proteins of Nrf2 at the cellular level.
(§5) Anti-NQO1 (sc-271116), anti-Nrf2 (BS1258) and Anti-β-actin (AP0060) antibodies were purchased from Santa Cruz Biotechnology (Santa Cruz, CA, USA) and Bioworlde (Bioworlde, Visalia, CA, USA), respectively. The isolation of cell fractions and Western blotting were performed as detailed previously. Briefly, the extracts were separated by SDS-PAGE and then electrotransferred to PVDF membranes (Perkin Elmer, Northwalk, CT, USA). Membranes were blocked with 1% BSA for 1 h followed by incubation with a primary antibody at 4 °C overnight. Then they were washed and treated with a DyLight 800 labeled secondary antibody at 37 °C for 2 h. The membranes were screened through the odyssey infrared imaging System (LI-COR, Lincoln, NE, USA).

NQO1 [11] = experiment: Western blot of NQO1 protein level in HCT116; type: cell-based, human; conditions: tBHQ at 100 μM
Description: as §4, §5

physchem = conditions: PAMPA, pH 7.4
Protocol: as §6, §7

| SMILES | logD [4] | Papp [5] | solubility [6] | melting point | pKa [7] | IC50 at 24 h [8] | fold induction at 0.1 µM [9] | fold induction at 1 µM [9] | fold induction at 5 µM [9] | fold induction at 10 µM ([9]; 10 μM) | fold induction at 50 µM [9] | fold induction at 100 µM ([9]; 100 μM) | ARE Inductivity in Luciferase Reporter Assay (induction fold) ([9]; 10 μM) | further results |
| --- | --- | --- | --- | --- | --- | --- | --- | --- | --- | --- | --- | --- | --- | --- |
| O=C(/C=C1\NCC2c3ccccc3CCN2C1=O)c1ccccc1 (stereo not shown) [Compound 1] | – | – | – | – | – | – | – | – | – | – | – | – | – | nuclear translocation of Nrf2 (Nrf2 [1]): induce the nuclear translocation of Nrf2; induction of ARE (previously reported) [2]: 26.87 fold; expression of NQO1 (NQO1 [3]): induce; development of colorectal adenomas (colorectal adenomas): significantly inhibit; expression of HO-1 (heme oxygenase-1 (HO-1)): induce |
| O=C(C=C1NCC2c3ccccc3CCN2C1=O)c1cccc(NC(=O)N2CCOCC2)c1 (stereo not shown) [Compound 1e, N-(3-(2-(4-oxo-1,6,7,11b-tetrahydro-2H-pyrazino[2,1-a]isoquinolin-3(4H)-ylidene)acetyl)phenyl)morpholine-4-carboxamide] | 0.61 | 53 ± 7.29 ×10⁻⁶ cm/s | 46 µg/mL (≈ 103 µM) | 228 to 230 °C | 2.9 | 183 µM | 1.57 ± 0.05 | 1.97 ± 0.2 | 4.53 ± 0.28 | 5.48 ± 0.13 | 7.8 ± 3.94 | 35 ± 3.15 | – | – |
| O=C(/C=C1\NCC2c3ccccc3CCN2C1=O)c1cccc(F)c1 (stereo not shown) [Compound 2] | 2.38 | 11.7 ± 2.2 ×10⁻⁶ cm/s | 22 µg/mL (≈ 65.4 µM) | – | 2.78 | 165 µM | 1.45 ± 0.39 | 6.2 ± 4.06 | 16.2 ± 0.3 | 31.2 | 7.51 ± 1.32 | 12.2 ± 3.32 | 31.17 ± 4.14 fold | induction of ARE (previously reported) [2]: 33.00 fold; water solubility ([6]; pH 7.4): 22 µg/mL (≈ 65.4 µM); IC50 (HCT116 cells): > 100 µM |
| O=C(C=C1NCC2c3ccccc3CCN2C1=O)C1CCC1 (stereo not shown) [Compound 2c, 3-(2-cyclobutyl-2-oxoethylidene)-1,2,3,6,7,11b-hexahydro-4H-pyrazino[2,1-a]isoquinolin-4-one] | 1.22 | 44 ± 5.42 ×10⁻⁶ cm/s | 170 µg/mL (≈ 574 µM) | 172 to 174 °C | 3.02 | 190 µM | 2.96 ± 0.48 | 3.04 ± 0.08 | 5.73 ± 1.44 | 13.3 ± 0.44 | 28 ± 1.39 | 29 ± 2.45 | – | – |
| O=C(C=C1NCC2CCCCN2C1=O)c1ccccc1 (stereo not shown) [Compound 3a, 3-(2-oxo-2-phenylethylidene)octahydro-4H-pyrido[1,2-a]pyrazin-4-one] | 0.98 | 66.4 ± 5.08 ×10⁻⁶ cm/s | 530 µg/mL (≈ 1960 µM) | 164 to 166 °C | 3.42 | > 300 µM | 1.2 ± 0.49 | 4.09 ± 0.79 | 15.8 ± 2.08 | 16.4 ± 0.55 | 29.9 ± 8.49 | 40.6 ± 1.78 | – | – |
| O=C(C=C1NCC2CCCCN2C1=O)c1cccc(F)c1 (stereo not shown) [Compound 3b, 3-(2-(3-fluorophenyl)-2-oxoethylidene)octahydro-4H-pyrido[1,2-a]pyrazin-4-one] | 1.23 | 54.5 ± 6 ×10⁻⁶ cm/s | 290 µg/mL (≈ 1010 µM) | 156 to 158 °C | 3.1 | 168 µM | 0.7 ± 0.35 | 5.98 ± 2.31 | 24.8 ± 2.67 | 33 | 40 ± 0.69 | 4.41 ± 2.89 | 32.97 ± 3.68 fold | – |
| O=C(C=C1NCC2CCCCN2C1=O)c1ccco1 (stereo not shown) [Compound 3g, 3-(2-(furan-2-yl)-2-oxoethylidene)octahydro-4H-pyrido[1,2-a]pyrazin-4-one] | -0.34 | 32.7 ± 1.92 ×10⁻⁶ cm/s | 3310 µg/mL (≈ 12700 µM) | 152 to 154 °C | 2.08 | > 300 µM | 0.24 ± 0.15 | 1.5 ± 0.01 | 6.41 ± 3.14 | 27 | 41.6 ± 2.6 | 79.7 | 27.01 ± 2.46 fold | Nrf2 protein level (Western blot) (Nrf2 [10]): elevated the protein level of Nrf2; NQO1 protein level (Western blot) (NQO1 [11]): induced by 3g in a concentration-dependent manner; ARE Inductivity in Luciferase Reporter Assay (induction fold) ([9]; 100 μM): 79.74 ± 1.92 fold |
| CC(C)NCC(O)COc1cccc2ccccc12 (stereo not shown) [Propranolol] | – | – | – | – | – | – | – | – | – | – | – | – | – | Papp (physchem): 64.7 ± 8.58 ×10⁻⁶ cm/s |
| CC(C)(C)c1cc(O)ccc1O [tBHQ, tert-butylhydroquinone, reference compound] | – | – | – | – | – | – | 1 ± 0.01 | 1.8 ± 0.66 | 1.67 ± 0.56 | 1.98 ± 0.29 | 4.45 ± 1.15 | 10.8 | – | NQO1 protein level (Western blot) (NQO1 [11]): induced expression of NQO1; ARE Inductivity in Luciferase Reporter Assay (induction fold) ([9]; 100 μM): 10.79 ± 3.13 fold |
